How the values were obtained:
Settings in all cases: incubation time: 72 h
[1] = system: MDA-MB-436; assay: drug sensitivity score (DSS), CellTiter-Blue viability (DSS (AUC-based score)); higher = stronger viability inhibition; extreme values may be limits of the assay
How it was run: (§1)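 Compound was arrayed in 384-well plates as a 5- or 9-concentration series, and 20 µl of breast cancer cell suspension was seeded on top. After 72 h, each well received 2.5 µl CellTiter-Blue for 2 h at 37 °C before fluorescence reading at 560/590 nm. Per-plate normalisation used 0.1 % DMSO and a positive kill control, and the area under the fitted dose-response curve gave the drug sensitivity score.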

[2] = system: Hs578T; assay: as above
How it was run: as §1

[3] = system: HCC1937; assay: as above
How it was run: as §1

[4] = system: CAL-148; assay: normalised viability (% of control), CellTiter-Blue; higher = more viable cells (about 100 = DMSO control)
How it was run: (§2)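 Plates were quality-checked by Z'-factor and normalised to vehicle (100) and a positive kill control (0). The underlying assay incubated breast cancer cell lines for 72 h on 384-well plates with compound, then added 2.5 µl CellTiter-Blue for 2 h at 37 °C and read at 560/590 nm. The value is normalised viability at a single listed concentration of the series.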

[5] = system: CAL-120; assay: as above
How it was run: as §2

[6] = system: MDA-MB-453; assay: as above
How it was run: as §2

[7] = system: CAL-51; assay: as above
How it was run: as §2

[8] = system: BT-549; assay: as above
How it was run: as §2

[9] = system: MDA-MB-436; assay: as above
How it was run: as §2

[10] = system: HDQ-P1; assay: as above
How it was run: as §2

[11] = system: SK-BR-3; assay: as above
How it was run: as §2

[12] = system: BT-474; assay: as above
How it was run: as §2

[13] = system: MDA-MB-468; assay: as above
How it was run: as §2

[14] = system: HCC1599; assay: as above
How it was run: as §2

[15] = system: HCC1143; assay: as above
How it was run: as §2

[16] = system: MFM-223; assay: as above
How it was run: as §2

[17] = system: Hs578T; assay: as above
How it was run: as §2

[18] = system: HCC1937; assay: as above
How it was run: as §2

[19] = system: DU-4475; assay: as above
How it was run: as §2

[20] = system: CAL-85-1; assay: as above
How it was run: as §2

[21] = system: MDA-MB-231; assay: as above
How it was run: as §2

[22] = system: MDA-MB-453; assay: normalised viability (% of control), CellTiter-Blue; higher = more viable cells (about 100 = DMSO control); remark: listed apart in the source
Protocol: (§3)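 DSRT, CellTiter-Blue viability, 72 h incubation. Signal is normalised to DMSO and benzethonium chloride controls. Value is the normalised response at dose 6.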

[23] = system: HDQ-P1; assay: as above; remark: listed apart in the source
Protocol: as §3

CC[C@H](Nc1ncnc2[nH]cnc12)c1nc2cccc(F)c2c(=O)n1-c1ccccc1 [CAL-101]
Settings	drug sensitivity score
[1]	0
[2]	0
[3]	0

Settings	normalised viability [%]
[4], 3 nM	91.9
[4], 30 nM	92.1
[4], 100 nM	88.5
[5], 10 nM	95.6
[5], 1000 nM	89.6
[5], 10000 nM	77.8
[6], 3 nM	97.5
[6], 30 nM	91.7
[6], 100 nM	89.8
[7], 3 nM	93
[7], 30 nM	92
[7], 100 nM	98
[8], 10 nM	100
[8], 1000 nM	96.6
[8], 10000 nM	71.8
[9], 10 nM	111
[9], 1000 nM	107
[9], 10000 nM	95.7
[10], 3 nM	90
[10], 30 nM	101
[10], 100 nM	102
[11], 10 nM	101
[11], 1000 nM	94.7
[11], 10000 nM	59.1
[12], 10 nM	108
[12], 1000 nM	109
[12], 10000 nM	90.9
[13], 10 nM	110
[13], 1000 nM	96
[13], 10000 nM	62.6
[14], 10 nM	84.8
[14], 1000 nM	77.9
[14], 10000 nM	49.1
[15], 10 nM	99.4
[15], 1000 nM	96.1
[15], 10000 nM	76.2
[16], 10 nM	90.3
[16], 1000 nM	89.9
[16], 10000 nM	79.9
[17], 10 nM	116
[17], 1000 nM	112
[17], 10000 nM	86.8
[18], 10 nM	106
[18], 1000 nM	94.5
[18], 10000 nM	92.4
[19], 3 nM	105
[19], 30 nM	83.2
[19], 100 nM	86.2
[20], 3 nM	88.6
[20], 30 nM	75.9
[20], 100 nM	78
[21], 10 nM	89.9
[21], 1000 nM	92.1
[21], 10000 nM	80.5
[22], 300 nM	86
[23], 300 nM	58

CC(=O)Nc1cccc(-n2c(=O)n(C3CC3)c(=O)c3c(Nc4ccc(I)cc4F)n(C)c(=O)c(C)c32)c1
Settings	drug sensitivity score
[1]	0
[2]	0
[3]	0

Settings	normalised viability [%]
[4], 0.075 nM	107
[4], 0.75 nM	96.2
[4], 2.5 nM	96.6
[5], 0.25 nM	113
[5], 25 nM	68.1
[5], 250 nM	47.6
[6], 0.075 nM	107
[6], 0.75 nM	113
[6], 2.5 nM	128
[7], 0.075 nM	103
[7], 0.75 nM	89.4
[7], 2.5 nM	84.4
[8], 0.25 nM	87.6
[8], 25 nM	92.3
[8], 250 nM	86.2
[9], 0.25 nM	104
[9], 25 nM	97.8
[9], 250 nM	95
[10], 0.075 nM	112
[10], 0.75 nM	98.3
[10], 2.5 nM	99.3
[11], 0.25 nM	111
[11], 25 nM	111
[11], 250 nM	97.7
[12], 0.25 nM	118
[12], 25 nM	111
[12], 250 nM	122
[13], 0.25 nM	110
[13], 25 nM	92.6
[13], 250 nM	74.7
[14], 0.25 nM	93.1
[14], 25 nM	69.8
[14], 250 nM	50.1
[15], 0.25 nM	124
[15], 25 nM	71
[15], 250 nM	64.6
[16], 0.25 nM	98.8
[16], 25 nM	84.5
[16], 250 nM	64.4
[17], 0.25 nM	129
[17], 25 nM	84.8
[17], 250 nM	83
[18], 0.25 nM	132
[18], 25 nM	112
[18], 250 nM	89.2
[19], 0.075 nM	117
[19], 0.75 nM	59.7
[19], 2.5 nM	10.8
[20], 0.075 nM	102
[20], 0.75 nM	93.6
[20], 2.5 nM	97
[21], 0.25 nM	101
[21], 25 nM	39.6
[21], 250 nM	38.7
[22], 7.5 nM	99.6
[23], 7.5 nM	54.1

— the supplement of paper PMC4862054
